Key:
Assay type in all cases: biochemical
Human Tyk2 kinase domain = molecular target: T1, Human Tyk2 kinase domain (Homo sapiens, UniProt P29597); test: Tyk2 Inhibition Assay (Omnia kinase fluorescence peptide substrate); conditions: averaged IC50 ranges; 10 μM (Km app) or 1 mM ATP, 2 nM Tyk2
T1 construct: comprising amino acids 886 to 1187; His10 (10 histidine residues) (C, cleaved yes); made in house
T1 sequence (P29597 886-1187): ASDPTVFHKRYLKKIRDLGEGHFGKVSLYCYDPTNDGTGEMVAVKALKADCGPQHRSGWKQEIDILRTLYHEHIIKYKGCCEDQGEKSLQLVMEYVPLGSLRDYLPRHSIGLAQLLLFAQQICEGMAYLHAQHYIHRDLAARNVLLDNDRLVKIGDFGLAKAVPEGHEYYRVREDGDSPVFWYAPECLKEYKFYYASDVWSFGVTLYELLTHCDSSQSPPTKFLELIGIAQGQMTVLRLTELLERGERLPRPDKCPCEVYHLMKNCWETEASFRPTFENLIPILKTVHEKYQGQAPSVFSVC
In short: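 Phosphorylation of 8 μM Omnia Y12 peptide followed kinetically by Sox fluorescence, ex 360/em 485 nm, every 50 s for 45 min. Enzyme: 2 nM Tyk2 kinase domain (aa 886–1187, His tag removed); ATP at 10 μM (Km app) or 1 mM; buffer HEPES pH 7.4 with MgCl2, Triton X-100, DTT. 10-point curves up to 10 μM, IC50 from 4-parameter logistic fit.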

JAK1 = molecular target: T2, JAK1 (Homo sapiens, UniProt P23458); test: JAK1 Inhibition Assay (Omnia kinase fluorescence peptide substrate); conditions: averaged IC50 ranges; 40 μM (Km app) or 1 mM ATP, 15 nM JAK1
T2 construct: purchased Invitrogen Corporation, Carlsbad, Calif; IVGN PV4775
In short: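 15 nM JAK1, 8 μM Omnia Y12 peptide, 40 μM (Km app) or 1 mM ATP; 25 mM HEPES pH 7.4, 10 mM MgCl2, 2% DMSO. Fluorescence (ex 360/em 485 nm) read every 50 s over 45 min. IC50 by 4-parameter fit of percent of control, top dose 10 μM.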

JAK2 = molecular target: T3, JAK2 (Homo sapiens, UniProt O60674); test: JAK2 Inhibition Assay (Omnia kinase fluorescence peptide substrate); conditions: averaged IC50 ranges; 25 μM (Km app) or 1 mM ATP, 5 nM JAK2
T3 construct: purchased Invitrogen Corporation, Carlsbad, Calif; IVGN PV4288

JAK3 = molecular target: T4, JAK3 (Homo sapiens, UniProt P52333); test: JAK3 Inhibition Assay (Omnia kinase fluorescence peptide substrate); conditions: averaged IC50 ranges; 10 μM (Km app) or 1 mM ATP, 2.5 nM JAK3
T4 construct: purchased Invitrogen Corporation, Carlsbad, Calif; IVGN PV4080
T4 sequence (P52333 1-1124): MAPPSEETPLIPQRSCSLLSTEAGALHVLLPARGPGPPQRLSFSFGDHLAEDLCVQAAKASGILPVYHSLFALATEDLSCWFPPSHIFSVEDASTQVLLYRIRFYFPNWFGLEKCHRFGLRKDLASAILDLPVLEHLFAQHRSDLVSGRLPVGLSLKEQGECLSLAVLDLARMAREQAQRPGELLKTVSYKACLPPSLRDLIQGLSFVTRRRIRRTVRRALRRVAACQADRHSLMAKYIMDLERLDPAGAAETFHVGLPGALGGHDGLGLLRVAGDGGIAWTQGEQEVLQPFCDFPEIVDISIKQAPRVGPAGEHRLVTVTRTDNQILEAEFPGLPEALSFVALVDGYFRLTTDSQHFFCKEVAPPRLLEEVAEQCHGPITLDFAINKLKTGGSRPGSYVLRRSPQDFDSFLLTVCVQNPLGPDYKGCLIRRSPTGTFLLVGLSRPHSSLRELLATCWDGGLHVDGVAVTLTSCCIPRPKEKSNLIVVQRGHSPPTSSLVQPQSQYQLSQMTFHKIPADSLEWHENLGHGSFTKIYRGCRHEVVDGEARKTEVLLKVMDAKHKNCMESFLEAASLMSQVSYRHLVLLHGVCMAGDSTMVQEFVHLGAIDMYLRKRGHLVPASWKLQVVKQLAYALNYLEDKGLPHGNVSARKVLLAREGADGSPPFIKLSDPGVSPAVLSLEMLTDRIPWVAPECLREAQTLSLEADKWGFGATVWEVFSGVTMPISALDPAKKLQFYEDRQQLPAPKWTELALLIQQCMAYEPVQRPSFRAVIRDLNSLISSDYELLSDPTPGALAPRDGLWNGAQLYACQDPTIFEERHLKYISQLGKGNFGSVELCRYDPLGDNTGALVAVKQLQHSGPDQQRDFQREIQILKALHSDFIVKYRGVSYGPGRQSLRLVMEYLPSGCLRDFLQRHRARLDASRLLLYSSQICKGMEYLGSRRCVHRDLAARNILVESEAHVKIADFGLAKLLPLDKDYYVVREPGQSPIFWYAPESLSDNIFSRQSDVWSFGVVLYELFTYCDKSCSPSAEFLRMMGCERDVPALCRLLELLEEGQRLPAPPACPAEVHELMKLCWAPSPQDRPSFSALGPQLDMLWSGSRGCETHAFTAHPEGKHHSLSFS
In short: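 IC50 is the concentration giving 50 percent of control on a 4-parameter logistic fit of 10-point, 3-fold dilutions from a 10 μM top dose, at 2% final DMSO. Kinetic Sox fluorescence (360/485 nm) was monitored every 50 s for 45 min. Mix: JAK3 2.5 nM, Omnia Y7 peptide 10 μM, ATP 10 μM (Km app) or 1 mM, in HEPES pH 7.4 buffer with MgCl2, Triton X-100 and DTT.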

[1] = tested on: Tyk2, JAK1, JAK2 and JAK3; test: in vitro assays (Examples A, B, C and D) taken together; conditions: Reference Examples; statement in words
Source text: The assays described in Examples A, B, C and D for the determination of Tyk2, JAK1, JAK2 and JAK3 kinase activity, respectively, utilized the Omnia® Kinase fluorescence peptide substrate-based technology (Invitrogen). The specific components of the assay mixture are described in Examples A, B, C and D. In these assays, Mg^2+ is chelated upon phosphorylation of the Omnia peptide by the kinase to form a bridge between the chelation-enhanced fluorophore Sox and the phosphate, resulting in an increase in fluorescence emission at 485 nm when excited at […]. The reactions were therefore read at excitation 360 nm and emission was measured at 485 nm every 50 seconds for 45 minutes using a PerkinElmer EnVision Multilabel Plate Reader.
The final buffer conditions for Tyk2, JAK1, JAK2, and JAK3 assays were as follows: 25 mM HEPES, pH 7.4, 10 mM MgCl2, 0.01% Triton X-100 and 1 mM DTT.
Compounds were prepared at 50× the final concentration in DMSO by conducting 3-fold serial dilutions from a 500-μM intermediate dilution to give a 10-point dosing curve having a high dose of 10 μM. Two-μL aliquots of these were transferred to a fresh plate for a ten-fold intermediate dilution with assay buffer. Five-μL aliquots of the diluted compounds were then transferred to 20-μL of assay mixtures described in Examples A, B, C and D for a final concentration of DMSO of 2%. A standard or reference compound was typically included on each assay plate to validate that plate. For each plate, percent of control (POC) values were calculated for each well according to the following equation: […]
Compounds of Formula I were screened for their ability to inhibit Tyk2 using the general enzyme inhibition assay method, in which the assay mixture contained 10 μM (Km app) or 1 mM ATP, 8 μM Omnia® Y12 peptide (Catalog #IVGN KPZ3121C; Invitrogen Corporation, Carlsbad, Calif.) and 2 nM Tyk2 in a total volume of 20 μL. Human Tyk2 kinase domain, comprising amino acids 886 to 1187 with 10 additional histidine residues (histidine tag) on the carboxy terminus, was expressed and purified from bacculovirus in-house at Array BioPharma Inc. (Boulder, Colo.). The histidine tag was cleaved after purification using standard conditions.
Compounds of Formula I were screened for their ability to inhibit JAK1 using the general enzyme inhibition assay method, in which the assay mixture contained 40 μM (Km app) or 1 mM ATP, 8 μM Omnia® Y12 peptide (Catalog #IVGN KPZ3121C; Invitrogen Corporation, Carlsbad, Calif.) and 15 nM JAK1 in a total volume of 20 μL. JAK1 was purchased from Invitrogen Corporation, Carlsbad, Calif. (catalog #IVGN PV4775).
(§1) Compounds of Formula I were screened for their ability to inhibit JAK2 using the general enzyme inhibition assay method, in which the assay mixture contained 25 μM (Km app) or 1 mM ATP, 10 μM Omnia® Y7 peptide (Catalog #IVGN KNZ3071C, Invitrogen Corporation, Carlsbad, Calif.) and 5 nM JAK2 in a total volume of 20 μL. JAK2 was purchased from Invitrogen Corporation, Carlsbad, Calif. (catalog #IVGN PV4288).
as §1, with “JAK3” for “JAK2”, “10” for “25”, “2.5” for “5”, “PV4080).” for “PV4288).”

T2 sequence (P23458 whole entry): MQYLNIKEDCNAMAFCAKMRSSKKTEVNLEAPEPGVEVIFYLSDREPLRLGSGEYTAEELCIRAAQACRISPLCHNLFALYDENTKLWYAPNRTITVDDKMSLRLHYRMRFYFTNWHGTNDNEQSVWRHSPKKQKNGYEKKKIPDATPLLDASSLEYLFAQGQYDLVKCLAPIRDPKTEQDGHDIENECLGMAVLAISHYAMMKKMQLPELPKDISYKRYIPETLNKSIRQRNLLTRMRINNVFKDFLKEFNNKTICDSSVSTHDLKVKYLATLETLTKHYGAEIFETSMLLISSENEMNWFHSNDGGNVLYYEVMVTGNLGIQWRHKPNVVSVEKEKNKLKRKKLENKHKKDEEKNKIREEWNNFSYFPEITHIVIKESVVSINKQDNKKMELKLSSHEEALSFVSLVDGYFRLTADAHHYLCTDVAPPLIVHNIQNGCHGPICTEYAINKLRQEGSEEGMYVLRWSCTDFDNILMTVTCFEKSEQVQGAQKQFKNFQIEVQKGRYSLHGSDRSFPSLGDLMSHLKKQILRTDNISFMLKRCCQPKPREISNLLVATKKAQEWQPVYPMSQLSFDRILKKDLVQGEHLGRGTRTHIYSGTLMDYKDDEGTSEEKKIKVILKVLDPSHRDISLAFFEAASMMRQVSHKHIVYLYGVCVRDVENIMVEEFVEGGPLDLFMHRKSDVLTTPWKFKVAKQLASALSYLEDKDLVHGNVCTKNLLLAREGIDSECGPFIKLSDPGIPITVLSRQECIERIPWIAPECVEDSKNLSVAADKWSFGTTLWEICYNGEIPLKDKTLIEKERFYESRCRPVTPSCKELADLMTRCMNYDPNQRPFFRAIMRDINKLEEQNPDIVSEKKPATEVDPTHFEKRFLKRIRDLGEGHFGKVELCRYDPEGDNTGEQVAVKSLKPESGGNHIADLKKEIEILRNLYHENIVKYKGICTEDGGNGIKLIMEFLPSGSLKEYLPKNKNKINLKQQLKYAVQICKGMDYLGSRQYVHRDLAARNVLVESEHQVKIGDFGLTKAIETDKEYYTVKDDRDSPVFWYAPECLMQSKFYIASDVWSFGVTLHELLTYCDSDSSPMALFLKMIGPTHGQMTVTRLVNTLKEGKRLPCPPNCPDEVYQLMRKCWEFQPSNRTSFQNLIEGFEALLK
T3 sequence (O60674 whole entry): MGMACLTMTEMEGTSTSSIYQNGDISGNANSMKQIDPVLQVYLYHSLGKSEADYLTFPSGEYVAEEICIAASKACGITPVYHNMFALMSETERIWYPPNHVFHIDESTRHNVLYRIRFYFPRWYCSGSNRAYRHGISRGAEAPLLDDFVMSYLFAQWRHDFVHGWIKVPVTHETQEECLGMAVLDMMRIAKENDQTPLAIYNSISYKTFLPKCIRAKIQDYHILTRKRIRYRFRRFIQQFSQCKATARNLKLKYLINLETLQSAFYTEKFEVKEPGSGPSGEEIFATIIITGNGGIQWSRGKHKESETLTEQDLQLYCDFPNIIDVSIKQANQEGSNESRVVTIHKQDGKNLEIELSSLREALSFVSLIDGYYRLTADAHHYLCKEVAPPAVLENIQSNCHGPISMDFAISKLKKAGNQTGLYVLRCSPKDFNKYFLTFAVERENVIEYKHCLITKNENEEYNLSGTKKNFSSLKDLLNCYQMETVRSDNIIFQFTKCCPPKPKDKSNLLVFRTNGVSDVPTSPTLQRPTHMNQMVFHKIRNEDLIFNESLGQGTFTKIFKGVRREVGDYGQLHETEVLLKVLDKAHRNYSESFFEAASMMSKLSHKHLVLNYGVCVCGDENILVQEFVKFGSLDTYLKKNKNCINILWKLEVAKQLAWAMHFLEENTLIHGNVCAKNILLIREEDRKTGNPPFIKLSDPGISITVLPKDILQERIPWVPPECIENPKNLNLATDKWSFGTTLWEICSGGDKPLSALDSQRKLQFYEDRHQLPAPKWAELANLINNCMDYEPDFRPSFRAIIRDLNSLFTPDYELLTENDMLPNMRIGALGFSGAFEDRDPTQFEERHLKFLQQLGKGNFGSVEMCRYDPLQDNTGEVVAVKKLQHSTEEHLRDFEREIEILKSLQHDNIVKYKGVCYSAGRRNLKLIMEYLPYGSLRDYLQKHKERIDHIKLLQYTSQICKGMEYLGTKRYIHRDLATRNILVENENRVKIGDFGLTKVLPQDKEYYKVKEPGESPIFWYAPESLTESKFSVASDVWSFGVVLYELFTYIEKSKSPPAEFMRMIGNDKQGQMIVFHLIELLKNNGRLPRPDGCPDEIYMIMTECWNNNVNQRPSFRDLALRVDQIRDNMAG

Structure (SMILES) | IC50 (Human Tyk2 kinase domain) [nM] | IC50 (JAK1) [nM] | IC50 (JAK2) [nM] | IC50 (JAK3) [nM] | activity in the in vitro assays [1]
Cn1cc(-c2cc3nccn3c(-c3cnn(C4(CCF)CN(C(=O)C5CC5)C4)c3)n2)cn1 [Example 97, cyclopropyl(3-(2-fluoroethyl)-3-(4-(7-(1-methyl-1H-pyrazol-4-yl)imidazo[1,2-c]pyrimidin-5-yl)-1H-pyrazol-1-yl)azetidin-1-yl)methanone] | > 1000 | > 1000 | > 1000 | > 1000 | weakly active
COCCC1(n2cc(-c3nc(-c4cnn(C)c4)cc4nccn34)cn2)CN(C(=O)N(C)C)C1 [Example 99, 3-(2-methoxyethyl)-N,N-dimethyl-3-(4-(7-(1-methyl-1H-pyrazol-4-yl)imidazo[1,2-c]pyrimidin-5-yl)-1H-pyrazol-1-yl)azetidine-1-carboxamide] | > 1000 | > 1000 | > 1000 | > 1000 | weakly active
COCCC(C1CCOC1)n1cc(-c2nc(-c3cnn(C)c3)cc3nccn23)cn1 (stereo not drawn) [Example 75, 5-(1-(3-methoxy-1-(tetrahydrofuran-3-yl)propyl)-1H-pyrazol-4-yl)-7-(1-methyl-1H-pyrazol-4-yl)imidazo[1,2-c]pyrimidine] | > 1000 | > 1000 | > 1000 | > 1000 | weakly active
COC(=O)CC(c1ccccc1)n1cc(-c2nc(-c3cnn(C)c3)cc3nccn23)cn1 (stereo not drawn) [Example 77, methyl 3-(4-(7-(1-methyl-1H-pyrazol-4-yl)imidazo[1,2-c]pyrimidin-5-yl)-1H-pyrazol-1-yl)-3-phenylpropanoate] | 100 to 1000 | 100 to 1000 | 100 to 1000 | 100 to 1000 | 
Cn1cc(-c2cc3nccn3c(-c3cnn([C@H](CC=C(F)F)C4CC4)c3)n2)cn1 [Example 49, (R)-5-(1-(1-cyclopropyl-4,4-difluorobut-3-en-1-yl)-1H-pyrazol-4-yl)-7-(1-methyl-1H-pyrazol-4-yl)imidazo[1,2-c]pyrimidine] | < 10 | 10 to 100 | 10 to 100 | 10 to 100 | 
C#CCC(C1CC1)n1cc(-c2nc(-c3cnn(C)c3)cc3nccn23)cn1 (stereo not drawn) [Example 55, 5-(1-(1-cyclopropylbut-3-yn-1-yl)-1H-pyrazol-4-yl)-7-(1-methyl-1H-pyrazol-4-yl)imidazo[1,2-c]pyrimidine] | < 10 | 100 to 1000 | 10 to 100 | 100 to 1000 | 
CO[C@H](C)Cn1cc(-c2cc3nccn3c(-c3cnn(C4(CCF)CN(S(=O)(=O)C(F)(F)F)C4)c3)n2)cn1 [Example 59, (R)-5-(1-(3-(2-fluoroethyl)-1-((trifluoromethyl)sulfonyl)azetidin-3-yl)-1H-pyrazol-4-yl)-7-(1-(2-methoxypropyl)-1H-pyrazol-4-yl)imidazo[1,2-c]pyrimidine] | < 10 | 100 to 1000 | 10 to 100 | 100 to 1000 | 
C=CCC(CC1CC1)n1cc(-c2nc(-c3cnn(C)c3)cc3nccn23)cn1 (stereo not drawn) [Example 10, 5-(1-(1-Cyclopropylpent-4-en-2-yl)-1H-pyrazol-4-yl)-7-(1-methyl-1H-pyrazol-4-yl)imidazo[1,2-c]pyrimidine] | < 10 | 100 to 1000 | 10 to 100 | 100 to 1000 | 
Cn1cc(-c2cc3nccn3c(-c3cnn(C4(CCF)CN(S(=O)(=O)CC(F)(F)F)C4)c3)n2)cn1 [Example 86, 5-(1-(3-(2-fluoroethyl)-1-((2,2,2-trifluoroethyl)sulfonyl)azetidin-3-yl)-1H-pyrazol-4-yl)-7-(1-methyl-1H-pyrazol-4-yl)imidazo[1,2-c]pyrimidine] | 100 to 1000 | > 1000 | 100 to 1000 | > 1000 | 

Reference: patent US20140228349A1, “5,7-SUBSTITUTED-IMIDAZO[1,2-C]PYRIMIDINES” (Array BioPharma Inc., priority 2011, published 2014)
